Data from US12637438B2, “Protoporphyrinogen oxidase inhibitors” (Enko Chem, Inc., priority 2021, dated 2026).

Legend:
Format in all cases: in vivo
[1] = test system: Amaranthus retroflexus (AMARE), Setaria italica (SETIT), and Kochia/Bassia scoparia (KCHSC); assay: Post-emergence herbicidal activity against weed species, overall statement; settings: concentration of 100 parts per million (PPM)
Method: (§1) Selected compounds of the invention were screened at 100 ppm concentration against Amaranthus retroflexus (AMARE), Setaria italica (SETIT), and Kochia/Bassia scoparia (KCHSC).
(§2) Accordingly, PPO susceptible weed seeds were sown in 5″×5″ pots by quadrant containing Miracle-Gro potting mix (Scotts Miracle-Gro Company, Marysville, OH, USA) and grown in a Conviron growth chamber with appropriate growth conditions (temperature of 26/22° C. with photoperiod 16/8 h light day/night and light intensity of 300 μmol m^−2 s^−1 supplemented by LED lamps). Relative humidity in the growth chamber was maintained at around 65%. Plants were grown until 2-4 leaf stage and thinned to 5-8 plants per quadrant per species.
(§3) Compounds were formulated in 25% Acetone, 1% Crop oil concentrate (COC-Agridex), 0.1% Tween-20, and 2.5% Ammonium sulphate (AMS). Three replicate pots were treated with each compound. Treatment consisting of the above formulation excluding active compound was applied as a treatment control (TC). Plants were treated with the test compound solution in a laboratory spray chamber fitted with 8003 flat fan nozzles calibrated to deliver 187-200 L ha^−1 at 269 kPa. Plants were placed back in the growth chamber and evaluated for % visual injury compared to TC 7 days after treatment (DAT). The data presented in Table 3 in which A represents a percentage control, where 100% control indicates complete inhibition of weed growth.

Setaria italica (SETIT) = assay: Post-emergence herbicidal activity, spray at 100 ppm; settings: % visual injury compared to treatment control 7 days after treatment
Method: as §1, §2, §3

[2] = test system: Amaranthus retroflexus (AMARE); assay: as above; settings: % visual injury compared to treatment control 7 days after treatment
Method: as §1, §2, §3

[3] = test system: Kochia/Bassia scoparia (KCHSC); assay: as above; settings: % visual injury compared to treatment control 7 days after treatment
Method: as §1, §2, §3

[4] = test system: Setaria Italica (Foxtail millet); assay: Leaf penetration and translocation with and without crop oil concentrate adjuvant (COC); settings: for Phloem mobility COC / Xylem mobility COC / Phloem mobility No-COC / Xylem mobility No-COC: 1.5 mM, 3×2 μL droplets on leaf, seven days after treatment; for Phloem mobility COC / Xylem mobility COC: with 1% v/v COC; for Phloem mobility No-COC / Xylem mobility No-COC: without COC; for leaf translocation: compared to compounds 920-4 and 920-6
Method: Selected compounds of the invention, along with compounds 920-4 and 920-6 from Japanese Patent Application No. 06321920, were tested for leaf penetration, translocation, and herbicidal activity in a grass weed species when applied with or without an adjuvant to increase the compound cuticle penetration.
Four to five PPO susceptible Setarialtalica (Foxtail millet) seed (Ernst Conservation Seeds, Meadville, PA) were sown in each of the 1.5×1.5-inch 6 cell plug inserts containing Miracle-Gro™ potting mix (Scotts Miracle-Gro Company, Marysville, OH, USA) and grown in a Conviron growth chamber with appropriate growth conditions (temperature of 26/22° C. with photoperiod 16/8 h light day/night and light intensity of 300 μmol m^−2 s^−1 supplemented by LED lamps). Relative humidity in the growth chamber was maintained at around 65%. Plants were grown until 1-2 leaf stage (one expanded leaf and one emerging leaf) and thinned to single plant per cell.
Test compounds were formulated to a final concentration of 1.5 mM in 25% Acetone, 0.1% Tween-20 and 2.5% Ammonium sulphate (AMS) with or without the addition of 1% v/v Crop oil concentrate (COC, Agridex). A total of 6 μL was applied as 3×2 μL droplets on the adaxial surface of an emerged Setaria Italica leaf for each of the two compound solutions (with and without COC). Six replicate plants were treated with each compound. Treatment consisting of the above formulation excluding active compound was applied as a treatment control (TC). Plants were placed back in the growth chamber and, seven days after treatment, were evaluated for overall % visual injury compared to TC. Plants were also evaluated for rapid necrosis representative of PPO inhibition at the site of, acropetal to, and basipetal to the droplet application site to estimate the general, xylem, and phloem compound mobility, respectively. In general, compounds with necrosis only at the site of action were considered to be poorly mobile whereas necrosis in the emerging leaf indicates symplastic phloem movement and necrosis from leaf base to tip only on the applied leaf indicates apoplastic xylem movement.
The data are presented in Table 4 are relative to the TC treatment for which the plant and leaf injury percent is consider 0%. “A” represents a percentage leaf or plant injury between 80 and 100%; “B” represents a percentage leaf or plant injury of 20-80%; “C” represents a percentage control below 20%.

Row | leaf translocation [4] | SMILES | herbicidal activity against weed species [1] | Post-emergence % control (100 PPM) SETIT (Setaria italica (SETIT)) | Post-emergence % control (100 PPM) AMARE [2] | Post-emergence % control (100 PPM) KCHSC [3] | Phloem mobility COC [4] | Xylem mobility COC [4] | Phloem mobility No-COC [4] | Xylem mobility No-COC [4]
1 | significant improved leaf translocation | C#CCN1C(=O)C(F)(F)Oc2cc(F)c(-c3c(F)cc(F)c(F)c3F)cc21 [Compound 37, 2,2,7-trifluoro-4-(prop-2-yn-1-yl)-6-(2,3,4,6-tetrafluorophenyl)-2H-benzo[b][1,4]oxazin-3(4H)-one] | excellent herbicidal activity | 58% | 100% | 92% | A (“A” represents a percentage leaf or plant injury between 80 and 100%) | A (“A” represents a percentage leaf or plant injury between 80 and 100%) | A (“A” represents a percentage leaf or plant injury between 80 and 100%) | A (“A” represents a percentage leaf or plant injury between 80 and 100%)
2 | significant improved leaf translocation | C#CCN1C(=O)COc2cc(F)c(-c3c(F)cc(F)c(F)c3F)cc21 [Compound 52, 7-fluoro-4-(prop-2-yn-1-yl)-6-(2,3,4,6-tetrafluorophenyl)-2H-benzo[b][1,4]oxazin-3(4H)-one] | excellent herbicidal activity | 72% | 100% | 93% | A (“A” represents a percentage leaf or plant injury between 80 and 100%) | A (“A” represents a percentage leaf or plant injury between 80 and 100%) | A (“A” represents a percentage leaf or plant injury between 80 and 100%) | A (“A” represents a percentage leaf or plant injury between 80 and 100%)
3 |  | C#CCN1C(=O)COc2cc(F)c(-c3c(Cl)cc(C(F)(F)F)cc3Cl)cc21 [Compound 920-4, reference compound] |  | 38% | 89% | 52% | A (“A” represents a percentage leaf or plant injury between 80 and 100%) | A (“A” represents a percentage leaf or plant injury between 80 and 100%) | C (“C” represents a percentage control below 20%) | C (“C” represents a percentage control below 20%)
4 |  | C#CCN1C(=O)COc2cc(F)c(-c3ccc(Cl)c(Cl)c3Cl)cc21 [Compound 920-6, reference compound] |  | 18% | 85% | 21% | A (“A” represents a percentage leaf or plant injury between 80 and 100%) | A (“A” represents a percentage leaf or plant injury between 80 and 100%) | C (“C” represents a percentage control below 20%) | C (“C” represents a percentage control below 20%)

Row | SMILES | leaf translocation [4] | herbicidal activity against weed species [1] | Post-emergence % control (100 PPM) SETIT (Setaria italica (SETIT)) | Post-emergence % control (100 PPM) AMARE [2] | Post-emergence % control (100 PPM) KCHSC [3] | Phloem mobility COC [4] | Xylem mobility COC [4] | Phloem mobility No-COC [4] | Xylem mobility No-COC [4]
5 | C#CCN1C(=O)C(F)(F)Oc2cc(F)c(-c3c(F)c(F)c(F)c(F)c3F)cc21 [Compound 2, 2,2,7-trifluoro-6-(perfluorophenyl)-4-(prop-2-yn-1-yl)-2H-benzo[b][1,4]oxazin-3(4H)-one] | significant improved leaf translocation | excellent herbicidal activity | 58% | 98% | 75% | A (“A” represents a percentage leaf or plant injury between 80 and 100%) | A (“A” represents a percentage leaf or plant injury between 80 and 100%) | A (“A” represents a percentage leaf or plant injury between 80 and 100%) | A (“A” represents a percentage leaf or plant injury between 80 and 100%)
